Read-outs that look alike come from different tables or passages of the source.
Tests used:
HT-29 cells = assay: Inhibitory effect on cell growth (MTT assay), HT-29 cells; format: cell-based
Method: Using HT-29 cells, the effect of the polyal-SN38 conjugates on cell growth was evaluated.
(§1) Cells are grown in McCoy's 5a medium with 1.5 mM L-glutamine supplemented with 10% FBS.

HCT116 = assay: Inhibitory effect on cell growth, HCT116 cells; format: cell-based, human
Method: as §1

[1] = pH 7.4
[2] = Homo sapiens, HT-29, HT29, growth inhibition 72 hours post treatment, MTT

## CC[C@@]1(O)C(=O)OCc2c1cc1n(c2=O)Cc2cc3ccccc3nc2-1 [Camptothecin (CPT), Camptothecin]
HT-29 cells; [2]
  IC50: 83 nM
HCT116; Homo sapiens, HCT-116
  IC50: 23 nM

## CCc1c2c(nc3ccc(OC(=O)N4CCC(N5CCCCC5)CC4)cc13)-c1cc3c(c(=O)n1C2)COC(=O)[C@]3(O)CC [Irinotecan]
HT-29 cells; [2]
  IC50: 4430 nM
HCT116; Homo sapiens, HCT-116
  IC50: 4650 nM

## CCc1c2c(nc3ccc(O)cc13)-c1cc3c(c(=O)n1C2)COC(=O)[C@]3(O)CC [SN38]
HT-29 cells; read-out: HT29 IC50
  IC50: 25 nM
HCT116
  IC50: 9 nM

## PHF-GA-Ala-SN38 [Conjugate S4]
[1]
  Release half-lives of SN38 conjugates, T½: 54.2 h

## PHF-GA-Gly-SN38 [Conjugate S2]
[1]
  Release half-lives of SN38 conjugates, T½: 18.5 h

## PHF-SA-Ala-SN38 [Conjugate S3]
[1]
  Release half-lives of SN38 conjugates, T½: 36.9 h

## PHF-SA-Gly-SN38 [Conjugate S1]
[1]
  Release half-lives of SN38 conjugates, T½: 2.0 h
